Here are results for one compound from ChEMBL document CHEMBL1687746, “Impact of sarA on daptomycin susceptibility of Staphylococcus aureus biofilms in vivo” (2009).

For orientation: MIC means the smallest concentration in the dilution series that meets the test's criterion for growth inhibition. The low end stands for a more susceptible organism, the high end for a less susceptible organism.

Assay [1] deals with Staphylococcus aureus. The assay is described as follows: Antimicrobial activity against Staphylococcus aureus UAMS-1653 assessed as bacterial load in catheter at 10 times MIC. The assay is classed as functional.
Assay [2] concerns Staphylococcus aureus. The assay is described as follows: Antimicrobial activity against Staphylococcus aureus UAMS-1625 by Etest method. It counts as functional.
Assay [3] concerns Staphylococcus aureus. The assay is described as follows: Antimicrobial activity against Staphylococcus aureus UAMS-1625 reduction in bacterial load in catheter at 20 ug/ml for 3 days. The assay is classed as functional, organism-based.
Assay [4] deals with Staphylococcus aureus. Kind of assay: Antimicrobial activity against Staphylococcus aureus UAMS-1 sarA mutant by Etest method.
Assay [5] deals with Staphylococcus aureus. The assay is described as follows: Antimicrobial activity against Staphylococcus aureus UAMS-1 assessed as reduction in bacterial load in catheter at >/= 10 ug/ml for 3 days. The assay is classed as functional, organism-based.
In assay [6] the test system is Staphylococcus aureus. Kind of assay: Antimicrobial activity against Staphylococcus aureus UAMS-1 by Etest method.
Assay [7] deals with Staphylococcus aureus. The assay is described as follows: Antimicrobial activity against Staphylococcus aureus UAMS-1625 sarA mutant by Etest method. It counts as functional.
Assay [8] relates to Staphylococcus aureus. Kind of assay: Antimicrobial activity against Staphylococcus aureus UAMS-929 assessed as bacterial load in catheter at 20 times MIC. The assay is classed as functional.
For assay [9], the system named is Staphylococcus aureus. The assay is described as follows: Antimicrobial activity against Staphylococcus aureus UAMS-1 assessed as bacterial load in catheter at 20 times MIC. It counts as functional.
Assay [10] relates to Staphylococcus aureus. Kind of assay: Antimicrobial activity against Staphylococcus aureus UAMS-1625 assessed as bacterial load in catheter at 10 times MIC. It counts as functional.
Assay [11] relates to Staphylococcus aureus. Kind of assay: Antimicrobial activity against Staphylococcus aureus UAMS-1 assessed as reduction in bacterial load in catheter at 20 ug/ml for 3 days. It counts as functional, organism-based.

Converted amounts (≈) assume the structure as drawn. The source made the active and inactive calls.

As for `CCCCCCCCCC(=O)N[C@@H](Cc1c[nH]c2ccccc12)C(=O)N[C@H](CC(N)=O)C(=O)N[C@@H](CC(=O)O)C(=O)N[C@@H]1C(=O)NCC(=O)N[C@@H](CCCN)C(=O)N[C@@H](CC(=O)O)C(=O)N[C@H](C)C(=O)N[C@@H](CC(=O)O)C(=O)NCC(=O)N[C@H](CO)C(=O)N[C@@H]([C@H](C)CC(=O)O)C(=O)N[C@@H](CC(=O)c2ccccc2N)C(=O)O[C@@H]1C`, the Activity in assay [1] is on record as 69%; in assay [8], 46.4%; in assay [9], 6.7%; in assay [10], 6.3%. The MIC was 0.38 µg/mL (≈ 0.234 µM) in assay [2], 0.5 µg/mL (≈ 0.309 µM) in assay [4], 0.5 µg/mL (≈ 0.309 µM) in assay [6] and 0.38 µg/mL (≈ 0.234 µM) in assay [7]. The outcome in assay [3] and in [5] was Active. The result in assay [11] was inactive.
